Laboratory results: PMC12365235, “Molecular mechanisms of thiazide-like diuretics-mediated inhibition of the human Na-Cl cotransporter” (Nature Communications, 2025)
“And” between values parts separate entries of the source, which are not always exact repeats. Identical values can stand only once.

Assays:
[1] = biological target: T1, hNCC(WT) (Homo sapiens, UniProt P55017); experiment: 125I- uptake assay, HEK293S cells stably expressing hNCC(WT); type: cell-based; details: for apparent affinity compared to polythiazide (times lower): hNCC(WT), Supplementary Fig. 2d
T1 construct: expressed in transfected cells
T1 sequence (P55017 1-1021): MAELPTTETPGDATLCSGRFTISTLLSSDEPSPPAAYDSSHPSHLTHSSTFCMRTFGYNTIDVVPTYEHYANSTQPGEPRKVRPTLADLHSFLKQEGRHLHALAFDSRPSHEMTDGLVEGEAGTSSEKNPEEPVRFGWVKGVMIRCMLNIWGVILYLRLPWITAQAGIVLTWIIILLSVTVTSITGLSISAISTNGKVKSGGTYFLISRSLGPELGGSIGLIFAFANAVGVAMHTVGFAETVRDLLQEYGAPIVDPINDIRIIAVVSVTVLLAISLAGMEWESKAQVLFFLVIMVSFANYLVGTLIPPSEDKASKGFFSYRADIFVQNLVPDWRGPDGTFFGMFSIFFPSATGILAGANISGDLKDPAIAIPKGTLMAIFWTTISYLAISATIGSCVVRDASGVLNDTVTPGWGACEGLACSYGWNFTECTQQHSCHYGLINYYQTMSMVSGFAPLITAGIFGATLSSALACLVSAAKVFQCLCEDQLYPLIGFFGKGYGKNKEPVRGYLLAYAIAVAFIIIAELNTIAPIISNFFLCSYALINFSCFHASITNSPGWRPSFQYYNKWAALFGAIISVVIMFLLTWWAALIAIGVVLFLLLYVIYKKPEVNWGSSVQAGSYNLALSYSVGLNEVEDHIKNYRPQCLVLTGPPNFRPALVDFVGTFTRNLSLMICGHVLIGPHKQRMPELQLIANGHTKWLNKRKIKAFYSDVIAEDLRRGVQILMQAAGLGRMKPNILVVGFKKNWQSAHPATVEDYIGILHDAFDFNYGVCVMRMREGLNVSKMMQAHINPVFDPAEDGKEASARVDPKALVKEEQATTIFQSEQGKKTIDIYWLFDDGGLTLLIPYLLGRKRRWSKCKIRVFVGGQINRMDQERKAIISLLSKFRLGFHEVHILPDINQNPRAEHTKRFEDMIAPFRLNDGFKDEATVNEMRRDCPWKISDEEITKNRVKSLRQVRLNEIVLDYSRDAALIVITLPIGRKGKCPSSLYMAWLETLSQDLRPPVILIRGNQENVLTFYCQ
Procedure: (§1) HEK293S cell lines, cultured in 293 Freestyle medium (Life Technologies; plus 10% fetal bovine serum), stably expressing hNCC and its variants were generated following published protocols. Cells were transfected using Lipofectamine 3000 (Invitrogen) with a pSBbi-RP-based plasmid containing hNCC or its variants and the SB100X vector. Puromycin (2 μg/mL; Gemini Bio-Products) was used for selection of stable cell lines.
(§2) To prepare for the uptake experiment, cells were plated at 0.5 × 10^6 cells/well in 24-well plates one day in advance. To activate NCC, cells were treated with a chloride-free hypotonic solution composed of 67.5 mM sodium-, 2.5 mM potassium-, 0.25 mM magnesium-, and 0.25 mM calcium-gluconate, as well as 7.5 mM HEPES pH 7.4 (buffered using Tris) at 37 °C for 10 min[72]. After the activation step, the experiments were carried out at room temperature. Ten minutes before the start of ^125I^− uptake, 70 μM Bumetanide (Thermo Scientific Chemicals) and 100 μM 4,4′-diisothiocyanatostilbene-2,2′-disulfonic acid (DIDS; Sigma) were added to suppress background iodide uptake activity. Indicated thiazide diuretics were also added to the indicated concentrations 10 min before the start of ^125I^− uptake. The original buffer was switched to an uptake buffer composed of 135 mM Na-gluconate, 5 mM K-gluconate, 1 mM Mg-gluconate, 1 mM Ca-gluconate, 70 μM bumetanide, 100 μM DIDS, 1 mM NaI, 0.25 μCi/ml Na^125I (American Radiolabeled Chemicals, Inc.), and 15 mM HEPES pH 7.4 (buffered using Tris), in the presence or absence of thiazide diuretics to initiate ^125I^− uptake. The ^125I^− uptake process lasted 1 h and was stopped by two rapid washes using ice-cold 110 mM MgCl2. Cells lysed using 1% sodium dodecyl sulfate (SDS) were analyzed by scintillation counting.
(§3) To calculate the fold change of the half-maximal inhibitory concentration (IC50) between hNCC(WT) and different hNCC variants, individual dose-response curves were normalized first using the smallest mean and the value of the lowest concentration as 0% and 100%, respectively. The normalized data were then fitted using the “EC50 shift” nonlinear regression in GraphPad Prism 10 with the shared EC50Control assigned to be the IC50 of hNCC(WT). The following constraints were used in the EC50 shift analysis. The EC50Control was set to be shared across all curves under analysis and constrained to be greater than 0. The EC50Ratio was constrained to be greater than 0. The bottom, top, and HillSlope were constrained to be 0, 100, and −1, respectively. For Fig. 1f, g and Supplementary Fig. 2d, GraphPad Prism 10 was used to perform curve fitting and IC50 calculation for normalized data using y = 100/(1 + (x/IC50)).

[2] = tested on: hNCC(V231M); experiment: 125I- uptake assay, hNCC(V231M) variant; type: cell-based, human; details: V231M polymorphism
Procedure: as §1, §2, §3

[3] = thiazide-sensitive iodide uptake, HEK293S stable cells, 1 mM extracellular iodide

## NS(=O)(=O)c1cc(C2(O)NC(=O)c3ccccc32)ccc1Cl (centres unmarked) [chlorthalidone]
[1]
  apparent affinity compared to polythiazide (times lower): ~ 40 times
[1]; [3]
  IC50: 23 nM
[2]
  sensitivity relative to hNCC(WT) (fold lower): 3 fold

## CC1Cc2ccccc2N1NC(=O)c1ccc(Cl)c(S(N)(=O)=O)c1 (centres unmarked) [indapamide]
[1]; as quoted in reviewer comment on the earlier manuscript version
  IC50: 9.3 nM
[1]
  apparent affinity compared to polythiazide (times lower): ~ 16 times
[2]
  sensitivity relative to hNCC(WT) (fold lower): 2 fold

## CN1C(CSCC(F)(F)F)Nc2cc(Cl)c(S(N)(=O)=O)cc2S1(=O)=O (centres unmarked) [polythiazide]
[1]; [3]
  IC50: 0.58 nM and ~0.5 nM
[2]
  sensitivity relative to hNCC(WT) (fold lower): nearly as sensitive as the wild-type
